# Experimental data from ChEMBL document CHEMBL1201862, “PubChem BioAssay data set” (2004).
# Active and inactive are the calls of the source.
# Key:
# Hexokinase HKDC1 [1] = molecular target: T1, Hexokinase HKDC1 (Homo sapiens, UniProt Q2TB90); test: inhibition of HKDC1 glucose phosphorylation – biochemical, W721R variant, dose response (AID 504729); format: functional
# T1 sequence (Q2TB90 whole entry): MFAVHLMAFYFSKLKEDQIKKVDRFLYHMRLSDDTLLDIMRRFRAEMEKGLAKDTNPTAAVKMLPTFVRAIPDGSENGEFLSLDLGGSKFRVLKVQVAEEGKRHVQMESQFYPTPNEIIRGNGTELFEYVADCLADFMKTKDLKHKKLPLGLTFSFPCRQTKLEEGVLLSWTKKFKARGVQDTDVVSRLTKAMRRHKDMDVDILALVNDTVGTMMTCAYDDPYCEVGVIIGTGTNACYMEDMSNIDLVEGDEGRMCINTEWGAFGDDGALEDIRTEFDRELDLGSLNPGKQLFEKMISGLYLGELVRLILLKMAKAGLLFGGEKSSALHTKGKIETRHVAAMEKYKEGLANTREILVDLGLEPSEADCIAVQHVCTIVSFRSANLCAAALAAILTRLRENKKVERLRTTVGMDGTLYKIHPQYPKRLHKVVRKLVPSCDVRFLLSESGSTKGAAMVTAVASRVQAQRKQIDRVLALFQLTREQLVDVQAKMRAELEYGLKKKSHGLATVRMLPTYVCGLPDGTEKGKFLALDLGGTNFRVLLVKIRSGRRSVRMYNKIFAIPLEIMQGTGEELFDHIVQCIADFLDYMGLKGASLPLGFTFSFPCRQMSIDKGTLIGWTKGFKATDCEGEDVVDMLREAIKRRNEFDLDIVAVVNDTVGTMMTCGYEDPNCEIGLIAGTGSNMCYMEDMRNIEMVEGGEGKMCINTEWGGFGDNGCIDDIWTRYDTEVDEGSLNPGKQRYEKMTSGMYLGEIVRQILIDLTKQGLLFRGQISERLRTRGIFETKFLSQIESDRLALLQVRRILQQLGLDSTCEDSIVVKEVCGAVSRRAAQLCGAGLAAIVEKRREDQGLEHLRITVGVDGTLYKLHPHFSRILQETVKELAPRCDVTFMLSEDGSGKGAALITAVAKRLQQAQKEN
# Hexokinase-1 = molecular target: T2, Hexokinase-1 (Homo sapiens, UniProt P19367); test: SAR analysis of small molecule inhibitors of hexokinase domain containing I (HKDC1) in the hexokinase 1 selectivity assay. [Related pubchem assays (depositor defined):AID493160, AID493190]; format: functional
# T2 sequence (P19367 whole entry): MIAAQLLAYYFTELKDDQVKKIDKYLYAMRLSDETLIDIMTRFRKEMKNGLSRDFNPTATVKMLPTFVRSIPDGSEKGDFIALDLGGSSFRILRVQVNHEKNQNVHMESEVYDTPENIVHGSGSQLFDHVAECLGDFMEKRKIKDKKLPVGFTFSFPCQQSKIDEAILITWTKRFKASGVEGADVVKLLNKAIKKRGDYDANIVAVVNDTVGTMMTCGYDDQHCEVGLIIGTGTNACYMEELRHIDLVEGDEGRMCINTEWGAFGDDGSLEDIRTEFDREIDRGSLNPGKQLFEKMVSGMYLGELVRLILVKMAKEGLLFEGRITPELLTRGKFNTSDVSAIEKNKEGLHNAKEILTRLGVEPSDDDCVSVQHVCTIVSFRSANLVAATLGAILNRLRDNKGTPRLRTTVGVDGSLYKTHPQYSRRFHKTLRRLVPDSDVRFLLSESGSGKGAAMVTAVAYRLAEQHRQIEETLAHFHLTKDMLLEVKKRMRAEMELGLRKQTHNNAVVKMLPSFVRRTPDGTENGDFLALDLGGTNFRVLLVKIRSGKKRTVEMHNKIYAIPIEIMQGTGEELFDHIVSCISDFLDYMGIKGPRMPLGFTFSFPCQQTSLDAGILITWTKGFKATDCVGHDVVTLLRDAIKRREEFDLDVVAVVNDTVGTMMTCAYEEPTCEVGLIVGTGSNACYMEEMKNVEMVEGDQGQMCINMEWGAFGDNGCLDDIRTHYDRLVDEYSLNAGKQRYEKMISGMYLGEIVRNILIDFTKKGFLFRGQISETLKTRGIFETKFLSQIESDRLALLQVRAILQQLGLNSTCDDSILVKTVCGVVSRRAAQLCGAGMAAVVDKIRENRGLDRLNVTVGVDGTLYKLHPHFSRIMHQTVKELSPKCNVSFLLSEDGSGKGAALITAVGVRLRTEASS
# Hexokinase HKDC1 [2] = molecular target: T1, Hexokinase HKDC1; test: SAR analysis of small molecule inhibitors of hexokinase domain containing I (HKDC1). [Related pubchem assays (depositor defined):AID493160, AID493190]; format: functional
# [3] = molecular target: T3, Dual specificity protein phosphatase 3 (Homo sapiens, UniProt P51452); test: SAR VHR1 absorbance Assay for In Vitro dose response studies. [Related pubchem assays (depositor defined):AID1654, AID1661, AID1878, AID1992, AID2004]
# [4] = molecular target: T3, Dual specificity protein phosphatase 3; test: SAR VHR1 Fluorescent Assay for In Vitro dose response studies. [Related pubchem assays (depositor defined):AID1654, AID1661, AID1878, AID1992, AID2004, AID2070, AID2085]; format: functional
# [5] = molecular target: T4, Tyrosine-protein phosphatase non-receptor type 7 (Homo sapiens, UniProt P35236); test: redox-active compounds inhibiting HePTP phosphatase – biochemical, fluorescence, mechanism study (AID 2068); format: functional
# T4 sequence (P35236 whole entry): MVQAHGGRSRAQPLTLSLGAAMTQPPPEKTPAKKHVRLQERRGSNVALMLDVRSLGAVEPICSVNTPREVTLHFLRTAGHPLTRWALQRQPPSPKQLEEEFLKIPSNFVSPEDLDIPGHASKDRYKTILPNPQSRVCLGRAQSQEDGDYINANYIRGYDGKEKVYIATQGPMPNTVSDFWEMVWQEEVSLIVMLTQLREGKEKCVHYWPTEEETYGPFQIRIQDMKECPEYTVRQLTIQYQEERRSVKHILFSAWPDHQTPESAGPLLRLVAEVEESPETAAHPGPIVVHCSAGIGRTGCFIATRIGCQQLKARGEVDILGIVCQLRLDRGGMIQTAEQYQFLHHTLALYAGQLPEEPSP
# [6] = molecular target: T5, Dual specificity protein phosphatase 6 (Rattus norvegicus, UniProt Q64346); format: functional;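 also: confirmatory in vitro dose-response testing of MKP-3 inhibition; recombinant His-tagged MKP-3 made in E. coli BL21 with OMFP substrate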
# T5 sequence (Q64346 whole entry): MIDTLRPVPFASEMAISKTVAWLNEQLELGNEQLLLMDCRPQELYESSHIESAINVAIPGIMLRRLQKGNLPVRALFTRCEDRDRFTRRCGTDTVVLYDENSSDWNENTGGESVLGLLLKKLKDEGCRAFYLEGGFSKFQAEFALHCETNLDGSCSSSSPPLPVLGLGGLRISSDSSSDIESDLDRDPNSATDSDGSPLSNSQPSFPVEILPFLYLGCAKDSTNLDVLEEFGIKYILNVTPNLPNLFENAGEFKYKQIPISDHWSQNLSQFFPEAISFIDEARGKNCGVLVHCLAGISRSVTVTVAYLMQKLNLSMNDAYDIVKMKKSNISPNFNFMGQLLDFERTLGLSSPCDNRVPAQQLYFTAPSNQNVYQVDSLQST
# [7] = molecular target: T6, RNA-binding protein pos-1 (Caenorhabditis elegans, UniProt G5EF15); test: disruptors of C. elegans POS-1 RNA interaction – biochemical, fluorescence polarization, dose response (AID 1964);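 also: purified POS-1 fused to maltose binding protein made in E. coli; potency of compounds blocking POS-1 binding to fluorescent RNA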
# T6 sequence (G5EF15 whole entry): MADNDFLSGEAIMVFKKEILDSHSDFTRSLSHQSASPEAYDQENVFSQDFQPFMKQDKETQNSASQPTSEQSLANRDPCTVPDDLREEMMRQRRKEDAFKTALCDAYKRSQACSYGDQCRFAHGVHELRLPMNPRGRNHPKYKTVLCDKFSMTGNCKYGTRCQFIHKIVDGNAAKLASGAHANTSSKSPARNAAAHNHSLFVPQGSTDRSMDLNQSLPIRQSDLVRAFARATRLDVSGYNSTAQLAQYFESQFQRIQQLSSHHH
# [8] = molecular target: T7, Zinc finger protein mex-5 (Caenorhabditis elegans, UniProt Q9XUB2); test: potency of MEX-5 RNA-binding blockers – biochemical, C. elegans, fluorescence polarization, dose response (AID 1960)
# T7 sequence (Q9XUB2 whole entry): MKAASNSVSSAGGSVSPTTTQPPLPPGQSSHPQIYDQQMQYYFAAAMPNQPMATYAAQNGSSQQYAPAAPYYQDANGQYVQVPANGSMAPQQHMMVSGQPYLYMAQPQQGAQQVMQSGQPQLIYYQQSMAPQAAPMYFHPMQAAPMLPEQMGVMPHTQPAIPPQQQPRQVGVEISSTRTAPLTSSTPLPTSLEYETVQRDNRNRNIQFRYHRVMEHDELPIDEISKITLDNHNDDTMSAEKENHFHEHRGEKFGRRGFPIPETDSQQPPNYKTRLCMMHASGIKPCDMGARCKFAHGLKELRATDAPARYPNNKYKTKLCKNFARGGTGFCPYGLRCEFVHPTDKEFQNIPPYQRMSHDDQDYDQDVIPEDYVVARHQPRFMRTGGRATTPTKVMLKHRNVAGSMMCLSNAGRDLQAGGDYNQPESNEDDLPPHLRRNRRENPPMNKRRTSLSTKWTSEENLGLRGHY
# [9] = viability of PTEN-deleted HCT116 cells – cell-based, HCT116 PTEN knockout, dose response (AID 1047); format: functional;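 also: HCT116 colon tumor cells with PTEN knocked out; cells exposed to compound for 60 hours before readout; potency for loss of cell viability measured by luminescence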
# [10] = viability of HCT116 lacking mutant beta-catenin – cell-based, human colon tumor, dose response (AID 1045); format: functional;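 also: HCT116 colon tumor cells with beta catenin knocked out; cells exposed to compound for 60 hours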
# ORF 73 = ORF 73 (Human herpesvirus 8, UniProt O40947); test: KSHV LANA DNA-binding disruption – biochemical, fluorescence polarization, cherry-picked samples, dose response (AID 504725); parameters: species or system Human gammaherpesvirus 8;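 also: fluorescence polarization of a labeled DNA duplex reporting LANA DNA binding; potency is for inhibitors that block LANA binding to the DNA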
# Troponin, cardiac muscle = Troponin, cardiac muscle (Homo sapiens, UniProt P19429+P45379+P63316); test: Fluorescence-based biochemical high throughput dose response assay for activators of the calcium sensitivity of cardiac Regulated Thin Filaments (RTF). [Related pubchem assays (depositor defined):AID493008, AID493018, AID504382, AID504383]; format: protein-complex assay
# Keap1/Nrf2 = Keap1/Nrf2 (Homo sapiens, UniProt Q14145); test: disruptors of Keap1 binding to Nrf2 peptide – biochemical, fluorescence polarization, cherry-picked samples, dose response (AID 588683)
# [11] = molecular target: Dual specificity tyrosine-phosphorylation-regulated kinase 1A (Rattus norvegicus, UniProt Q63470); format: biochemical, Homo sapiens
# [12] = molecular target: T8, Long-chain-fatty-acid--AMP ligase FadD28 (Mycobacterium tuberculosis, UniProt P9WQ59); test: Fluorescence polarization aasay to screen for inhibitors that compete for the binding of FadD28 to a bisubstrate Measured in Biochemical System Using Plate Reader - 2147-01_Inhibitor_Dose_CherryPick_Activity.; format: functional, Mycobacterium tuberculosis H37Rv
# T8 sequence (P9WQ59 whole entry): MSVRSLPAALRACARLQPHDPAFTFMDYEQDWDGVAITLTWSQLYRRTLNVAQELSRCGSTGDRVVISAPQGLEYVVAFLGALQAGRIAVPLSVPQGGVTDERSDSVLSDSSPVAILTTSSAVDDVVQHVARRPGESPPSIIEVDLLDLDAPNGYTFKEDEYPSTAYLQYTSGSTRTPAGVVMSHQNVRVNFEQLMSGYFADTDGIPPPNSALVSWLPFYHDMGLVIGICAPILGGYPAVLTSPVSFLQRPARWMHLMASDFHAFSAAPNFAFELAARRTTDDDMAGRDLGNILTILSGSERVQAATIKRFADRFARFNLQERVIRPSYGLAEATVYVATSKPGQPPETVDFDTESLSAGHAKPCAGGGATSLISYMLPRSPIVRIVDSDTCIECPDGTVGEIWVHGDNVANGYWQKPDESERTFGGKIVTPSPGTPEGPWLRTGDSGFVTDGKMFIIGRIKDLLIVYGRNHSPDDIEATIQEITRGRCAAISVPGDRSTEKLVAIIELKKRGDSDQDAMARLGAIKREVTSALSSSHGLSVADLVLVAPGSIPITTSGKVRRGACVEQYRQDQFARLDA
# Fibrinogen beta chain [13] = molecular target: T9, Fibrinogen beta chain (Homo sapiens, UniProt P02675); test: Fluorescence polarization-based biochemical high throughput dose response assay to identify inhibitors that disrupt the binding of a cyclic peptide (Tn6) to the fibrin proteolytic product D-Dimer and fragment E complex [DD(E )].
# Fibrinogen beta chain [14] = molecular target: T9, Fibrinogen beta chain; test: Fluorescence polarization-based biochemical high throughput dose response assay to identify inhibitors that disrupt the binding of a cyclic peptide (Tn7) to the fibrin proteolytic product D-Dimer and fragment E complex [DD(E )].
# T3 sequence (P51452 whole entry): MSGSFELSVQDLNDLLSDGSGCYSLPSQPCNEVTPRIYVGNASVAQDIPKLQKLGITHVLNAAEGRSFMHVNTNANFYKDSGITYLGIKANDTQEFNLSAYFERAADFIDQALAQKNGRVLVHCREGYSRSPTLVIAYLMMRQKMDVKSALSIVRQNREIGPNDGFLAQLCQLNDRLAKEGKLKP
# T9 sequence (P02675 whole entry, the tested form may be a part): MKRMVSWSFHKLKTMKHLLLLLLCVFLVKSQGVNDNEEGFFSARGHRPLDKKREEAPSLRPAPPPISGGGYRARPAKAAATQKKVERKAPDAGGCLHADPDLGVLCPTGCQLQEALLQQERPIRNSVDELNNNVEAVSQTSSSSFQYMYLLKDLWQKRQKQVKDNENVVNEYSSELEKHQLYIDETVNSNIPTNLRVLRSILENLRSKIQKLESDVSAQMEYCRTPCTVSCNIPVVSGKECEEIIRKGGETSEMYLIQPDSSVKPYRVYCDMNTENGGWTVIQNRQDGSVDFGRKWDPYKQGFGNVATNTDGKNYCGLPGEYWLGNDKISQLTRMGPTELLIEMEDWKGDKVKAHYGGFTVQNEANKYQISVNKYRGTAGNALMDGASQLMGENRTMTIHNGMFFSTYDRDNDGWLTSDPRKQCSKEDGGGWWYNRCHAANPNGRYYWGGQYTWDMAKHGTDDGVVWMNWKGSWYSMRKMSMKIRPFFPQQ
# ORF 73, sequence (O40947 whole entry): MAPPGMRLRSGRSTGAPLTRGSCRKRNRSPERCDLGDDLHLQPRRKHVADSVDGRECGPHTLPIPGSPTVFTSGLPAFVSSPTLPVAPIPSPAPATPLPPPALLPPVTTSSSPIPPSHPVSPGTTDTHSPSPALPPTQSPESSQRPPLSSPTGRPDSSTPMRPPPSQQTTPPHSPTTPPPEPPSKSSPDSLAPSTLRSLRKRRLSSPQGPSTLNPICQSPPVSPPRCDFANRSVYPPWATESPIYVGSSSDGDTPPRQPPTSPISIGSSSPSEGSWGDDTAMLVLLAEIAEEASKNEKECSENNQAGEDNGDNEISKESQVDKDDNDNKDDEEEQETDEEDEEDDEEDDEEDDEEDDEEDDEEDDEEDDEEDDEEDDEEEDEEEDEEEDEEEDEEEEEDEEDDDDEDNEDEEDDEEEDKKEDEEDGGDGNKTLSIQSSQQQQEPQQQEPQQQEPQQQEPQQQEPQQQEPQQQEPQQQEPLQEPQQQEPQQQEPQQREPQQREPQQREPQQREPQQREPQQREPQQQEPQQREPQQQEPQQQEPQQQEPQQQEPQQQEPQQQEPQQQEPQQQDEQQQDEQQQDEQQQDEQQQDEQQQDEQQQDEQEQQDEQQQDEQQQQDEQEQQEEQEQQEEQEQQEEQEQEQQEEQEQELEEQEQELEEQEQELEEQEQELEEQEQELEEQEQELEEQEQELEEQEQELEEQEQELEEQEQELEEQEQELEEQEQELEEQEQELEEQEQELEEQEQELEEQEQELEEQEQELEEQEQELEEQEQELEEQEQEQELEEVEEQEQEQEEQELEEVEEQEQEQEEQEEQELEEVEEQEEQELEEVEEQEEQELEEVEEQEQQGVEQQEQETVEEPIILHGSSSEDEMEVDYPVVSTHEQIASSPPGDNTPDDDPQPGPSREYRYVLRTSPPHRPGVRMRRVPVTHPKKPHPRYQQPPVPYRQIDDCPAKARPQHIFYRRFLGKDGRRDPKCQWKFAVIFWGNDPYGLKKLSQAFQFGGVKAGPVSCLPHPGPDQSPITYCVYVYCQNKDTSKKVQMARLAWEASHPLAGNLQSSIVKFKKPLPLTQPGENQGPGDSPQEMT
# Keap1/Nrf2, sequence (Q16236 whole entry): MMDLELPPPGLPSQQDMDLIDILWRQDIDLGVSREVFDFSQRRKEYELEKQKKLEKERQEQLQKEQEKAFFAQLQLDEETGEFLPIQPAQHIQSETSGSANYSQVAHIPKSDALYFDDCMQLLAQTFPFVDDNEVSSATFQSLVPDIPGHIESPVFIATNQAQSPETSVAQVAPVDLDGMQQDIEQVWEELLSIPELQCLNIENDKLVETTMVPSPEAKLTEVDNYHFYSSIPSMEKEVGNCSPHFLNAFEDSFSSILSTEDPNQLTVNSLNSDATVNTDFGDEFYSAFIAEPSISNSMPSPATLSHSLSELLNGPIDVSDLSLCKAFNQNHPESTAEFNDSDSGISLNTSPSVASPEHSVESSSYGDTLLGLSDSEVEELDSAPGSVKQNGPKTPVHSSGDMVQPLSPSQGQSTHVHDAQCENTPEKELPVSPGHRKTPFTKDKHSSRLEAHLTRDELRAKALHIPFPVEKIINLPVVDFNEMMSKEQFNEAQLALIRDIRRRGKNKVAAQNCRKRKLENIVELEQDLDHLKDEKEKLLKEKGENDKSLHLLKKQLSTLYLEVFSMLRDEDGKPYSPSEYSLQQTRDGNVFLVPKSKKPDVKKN
# Keap1/Nrf2, sequence (Q14145 whole entry): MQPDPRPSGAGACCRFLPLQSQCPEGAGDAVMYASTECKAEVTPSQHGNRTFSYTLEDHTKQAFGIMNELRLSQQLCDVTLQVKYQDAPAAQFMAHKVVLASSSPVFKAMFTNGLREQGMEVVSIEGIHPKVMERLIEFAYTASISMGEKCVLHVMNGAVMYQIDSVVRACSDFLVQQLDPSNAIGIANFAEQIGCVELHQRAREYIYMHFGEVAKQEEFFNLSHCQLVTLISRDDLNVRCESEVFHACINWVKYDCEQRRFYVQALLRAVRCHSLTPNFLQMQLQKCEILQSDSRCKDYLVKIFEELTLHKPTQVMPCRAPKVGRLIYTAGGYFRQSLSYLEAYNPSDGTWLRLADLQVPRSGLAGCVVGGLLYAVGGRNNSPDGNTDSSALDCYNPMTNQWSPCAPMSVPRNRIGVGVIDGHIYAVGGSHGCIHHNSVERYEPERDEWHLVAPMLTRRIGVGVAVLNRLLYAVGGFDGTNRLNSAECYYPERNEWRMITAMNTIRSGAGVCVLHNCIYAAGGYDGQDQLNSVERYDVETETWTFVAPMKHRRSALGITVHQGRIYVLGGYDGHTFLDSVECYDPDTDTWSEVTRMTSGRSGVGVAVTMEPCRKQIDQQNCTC
compound,measurement,setting,value
Cc1cc2nnc(SCC(=O)Nc3cc(S(=O)(=O)N4CCOCC4)ccc3Cl)n2c2ccccc12,IC50,Hexokinase HKDC1 [1],3.16 µM (active)
same,IC50,Hexokinase-1,3.76 µM (active)
same,IC50,Hexokinase HKDC1 [2],3.39 µM (active)
CNC(=O)c1cn(CCOc2ccccc2)c2ccccc12,IC50,[3],> 100 µM (inactive)
same,IC50,[4],> 100 µM (inactive)
same,IC50,[5],86.8 µM (active)
same,IC50,[6],> 100 µM (inactive)
N#CC1=C(N)Oc2ccc3ccc(O)cc3c2C1c1ccsc1 (stereo not drawn),EC50,[7],76.1 µM (inconclusive)
same,EC50,[8],11 µM (inconclusive)
same,EC50,[9],10.4 µM (active)
same,EC50,[10],15.4 µM (active)
same,AC50,ORF 73,51.6 µM (active)
same,EC50,"Troponin, cardiac muscle",18.8 µM (inactive)
same,AC50,Keap1/Nrf2,> 52 µM (inactive)
same,AC50,[11],8.56 µM (active)
same,AC50,[12],52.3 µM (active)
same,IC50,Fibrinogen beta chain [13],8.51 µM (active)
same,IC50,Fibrinogen beta chain [14],> 83.3 µM (inactive)
